Assay results taken from patent publication US20200400650A1, “METHODS FOR DECONTAMINATING CIRCUITS FOR PRODUCING GLUCOSE POLYMERS AND HYDROLYSATES OF GLUCOSE POLYMERS” (Roquette Freres, priority 2012, published 2020).
“Also recorded” adds a separate entry of the source. One block for each compound: values may come before it.

How the values were obtained:
Raw-Blue™ line = assay: Raw-Blue cell inflammatory response test (SEAP reporter activity); type: cell-based, mouse
Excerpt: The Raw-Blue™ line is a line of mouse macrophages transfected with a reporter gene producing a secreted form of alkaline phosphatase (SEAP: secreted embryonic alkaline phosphatase), the transcription of which is under the direct control of the inflammatory signaling pathways. The advantage of this line is that it naturally expresses virtually all the innate immunity receptors, including the TLR2, TLR4 and NOD2 receptors. Thus, these cells will respond to the majority of inflammatory contaminants, and the response will be monitored by measuring the enzymatic activity of the SEAP produced. Preferably, this line is used in the test at a cell density of approximately 0.5×10^6 cells/well. The bringing of the preparation of glucose polymers or of hydrolysates thereof into contact with the cells lasts approximately 16 to 24 h.
(§1) The dose-response curves are produced with standard agonist molecules: LPS, PGN, LTA, zymosan and MDP. The Raw-Blue™ and HEK-Blue™ TLR2, TLR4, NOD2 and Null lines are incubated with increasing concentrations of agonists, and the cell response is measured by quantifying the SEAP activity (FIGS. 1-5).
For the cell tests, the samples are diluted to 1/10 in the cell culture medium (final concentration: 3.2% (w/v)). […]

hTLR2 receptor = target: T1, hTLR2 receptor (Homo sapiens, UniProt O60603); assay: HEK-Blue hTLR2 cell response test (SEAP reporter activity); type: cell-based
T1 construct: host or cells: HEK-Blue hTLR2 (HEK293-derived, SEAP reporter)
Excerpt: (§2) The cell lines, in particular HEK-Blue™ (InvivoGen), are lines modified by stable transfection with a vector encoding an innate immunity receptor, in particular human (h) receptors. They are also cotransfected with the reporter gene, in particular a reporter gene producing SEAP, the synthesis of which is under the direct control of the signaling pathway associated with the receptor overexpressed. Preferably, this reporter gene encodes a colored or fluorescent protein or a protein of which the activity can be measured with or without substrate. […] The use of these lines makes it possible to target certain families of molecules of microbial origin according to the receptor expressed. Preferably, cell lines expressing either hTLR2 or hTLR4 or hNOD2 are used. In addition, a control line which expresses no innate immunity receptor is also used.
(§3) For the tests according to the present invention, four lines are preferably used: • HEK-Blue™ hTLR2 line: this line expressing the hTLR2 receptor responds specifically to TLR2 agonists (PGNs and lipopeptides especially). […]
as §1, with “1-5). […]” for “1-5).”

hTLR4 receptor = target: T2, hTLR4 receptor (Homo sapiens, UniProt O00206+Q9Y6Y9); assay: HEK-Blue hTLR4 cell response test (SEAP reporter activity); type: cell-based
T2 construct: host or cells: HEK-Blue hTLR4 (HEK293-derived, SEAP reporter)
Excerpt: as §2, §3
as §1, with “1-5). […]” for “1-5).”

hNOD2 receptor = target: T3, hNOD2 receptor (Homo sapiens, UniProt Q9HC29); assay: HEK-Blue hNOD2 cell response test (SEAP reporter activity); type: cell-based; details: increasing concentrations of agonist
T3 construct: host or cells: HEK-Blue hNOD2 (HEK293-derived, SEAP reporter)
Excerpt: as §2, §3
as §1, with “1-5). […]” for “1-5).”

[1] = test system: Raw-Blue™ and HEK-Blue™ lines; assay: Assessment by sample of the inflammatory activities from the combined cell tests; type: cell-based; details: overall assessment, FIG. 11
Experimental: The objective of these tests is to determine the pro-inflammatory reactivity and the nature of the contaminants present in the glucose polymer matrices and the batch of glucose polymer hydrolysate.
The analyses are carried out on: • Raw-Blue™ line: any contaminants with high reactivity for PGNs, • HEK-Blue™ hTLR2 line: high reactivity for PGNs, • HEK-Blue™ hTLR4 line: high reactivity for LPSs, • HEK-Blue™ hNOD2 line: MDP and PGN depolymerization products, • HEK-Blue™ Null2 line: control for absence of cell toxicity.

[2] = background statement; cited from earlier work
[3] = increasing concentrations of agonist, SEAP activity

T1 sequence (O60603 19-784 limits assumed): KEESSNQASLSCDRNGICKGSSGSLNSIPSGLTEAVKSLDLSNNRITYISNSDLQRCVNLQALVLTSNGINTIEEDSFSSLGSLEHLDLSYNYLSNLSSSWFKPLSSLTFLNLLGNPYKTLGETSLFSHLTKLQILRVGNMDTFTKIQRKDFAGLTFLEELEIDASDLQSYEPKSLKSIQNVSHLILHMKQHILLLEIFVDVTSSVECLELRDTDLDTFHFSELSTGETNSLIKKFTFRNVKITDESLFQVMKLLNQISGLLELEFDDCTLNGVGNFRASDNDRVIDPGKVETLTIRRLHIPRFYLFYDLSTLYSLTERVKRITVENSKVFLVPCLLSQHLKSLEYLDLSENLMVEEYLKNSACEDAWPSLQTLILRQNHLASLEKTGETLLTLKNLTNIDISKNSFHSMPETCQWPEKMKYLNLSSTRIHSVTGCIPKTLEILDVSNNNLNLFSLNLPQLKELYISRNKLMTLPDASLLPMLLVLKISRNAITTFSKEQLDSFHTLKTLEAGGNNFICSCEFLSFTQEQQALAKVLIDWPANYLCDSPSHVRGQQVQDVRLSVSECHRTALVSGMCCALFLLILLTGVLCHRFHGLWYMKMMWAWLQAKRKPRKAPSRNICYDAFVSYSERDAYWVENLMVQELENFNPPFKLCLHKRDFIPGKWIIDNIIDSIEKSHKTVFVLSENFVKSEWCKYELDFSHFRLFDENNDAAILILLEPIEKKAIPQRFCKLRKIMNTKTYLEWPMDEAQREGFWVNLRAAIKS
T2 sequence (O00206 24-839): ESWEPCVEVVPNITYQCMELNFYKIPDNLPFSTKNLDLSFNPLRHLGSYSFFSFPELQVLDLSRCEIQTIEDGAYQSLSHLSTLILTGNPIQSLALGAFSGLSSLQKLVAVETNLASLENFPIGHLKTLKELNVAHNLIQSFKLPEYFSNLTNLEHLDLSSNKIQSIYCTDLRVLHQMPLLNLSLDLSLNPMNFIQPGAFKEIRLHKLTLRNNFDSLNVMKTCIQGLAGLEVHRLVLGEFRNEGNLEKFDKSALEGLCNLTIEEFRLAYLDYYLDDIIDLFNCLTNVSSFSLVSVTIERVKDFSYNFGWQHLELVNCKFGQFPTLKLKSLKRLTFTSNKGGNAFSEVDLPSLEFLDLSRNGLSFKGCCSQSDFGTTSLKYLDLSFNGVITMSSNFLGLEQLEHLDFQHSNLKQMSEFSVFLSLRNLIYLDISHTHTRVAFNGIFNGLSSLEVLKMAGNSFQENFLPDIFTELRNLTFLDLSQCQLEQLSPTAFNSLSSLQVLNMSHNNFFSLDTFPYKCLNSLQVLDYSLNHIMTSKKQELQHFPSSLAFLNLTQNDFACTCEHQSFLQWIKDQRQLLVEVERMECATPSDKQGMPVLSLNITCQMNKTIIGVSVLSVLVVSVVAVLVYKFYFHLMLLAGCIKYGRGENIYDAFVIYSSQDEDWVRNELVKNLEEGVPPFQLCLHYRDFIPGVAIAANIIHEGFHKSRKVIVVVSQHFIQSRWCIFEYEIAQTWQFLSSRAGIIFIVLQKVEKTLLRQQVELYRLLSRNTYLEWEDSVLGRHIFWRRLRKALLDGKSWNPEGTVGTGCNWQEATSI
T2 sequence (Q9Y6Y9 17-160 limits assumed): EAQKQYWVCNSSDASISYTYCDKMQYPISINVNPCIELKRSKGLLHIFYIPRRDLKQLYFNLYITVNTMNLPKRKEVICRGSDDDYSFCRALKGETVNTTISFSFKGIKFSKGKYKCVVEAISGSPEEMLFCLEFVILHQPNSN
T3 sequence (Q9HC29 whole entry): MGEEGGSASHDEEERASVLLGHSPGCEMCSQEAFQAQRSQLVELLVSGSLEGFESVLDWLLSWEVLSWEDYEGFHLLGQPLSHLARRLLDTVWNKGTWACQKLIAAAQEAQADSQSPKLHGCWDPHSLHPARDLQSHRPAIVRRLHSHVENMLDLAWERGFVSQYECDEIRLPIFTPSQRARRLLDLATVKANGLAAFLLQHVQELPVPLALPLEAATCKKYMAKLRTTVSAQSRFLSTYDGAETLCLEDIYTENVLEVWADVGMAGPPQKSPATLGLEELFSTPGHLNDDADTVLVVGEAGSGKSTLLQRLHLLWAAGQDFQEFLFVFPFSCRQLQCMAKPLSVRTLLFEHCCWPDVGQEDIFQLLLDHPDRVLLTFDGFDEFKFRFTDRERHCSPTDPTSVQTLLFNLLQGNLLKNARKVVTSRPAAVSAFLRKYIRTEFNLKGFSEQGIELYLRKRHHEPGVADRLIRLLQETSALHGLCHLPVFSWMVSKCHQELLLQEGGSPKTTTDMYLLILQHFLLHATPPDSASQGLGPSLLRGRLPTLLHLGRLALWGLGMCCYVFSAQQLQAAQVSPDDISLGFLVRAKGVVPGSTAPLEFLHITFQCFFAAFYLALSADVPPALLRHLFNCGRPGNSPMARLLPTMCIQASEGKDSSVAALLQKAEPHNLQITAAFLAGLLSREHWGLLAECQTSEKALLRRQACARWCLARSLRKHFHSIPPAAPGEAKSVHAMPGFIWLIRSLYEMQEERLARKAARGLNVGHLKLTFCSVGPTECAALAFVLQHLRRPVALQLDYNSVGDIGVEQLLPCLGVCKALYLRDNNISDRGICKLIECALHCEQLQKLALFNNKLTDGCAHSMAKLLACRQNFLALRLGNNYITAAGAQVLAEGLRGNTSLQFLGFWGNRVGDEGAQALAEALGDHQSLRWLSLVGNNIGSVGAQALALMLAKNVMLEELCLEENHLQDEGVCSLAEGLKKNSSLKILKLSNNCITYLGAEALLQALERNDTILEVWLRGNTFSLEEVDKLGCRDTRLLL

HEK-Blue hTLR2 cell response to standard agonists (hTLR2 receptor; [3]): no reactivity
HEK-Blue hTLR4 cell response to standard agonists (hTLR4 receptor; [3]): no reactivity
HEK-Blue hNOD2 cell response to standard agonists (hNOD2 receptor): strong reactivity
Compound: CC(=O)N[C@H]1C(O)O[C@H](CO)[C@@H](O)[C@@H]1O[C@H](C)C(=O)N[C@@H](C)C(=O)N[C@H](CCC(=O)O)C(N)=O (mixture of isomers) [MDP, muramyl dipeptide]
Raw-Blue cell response to standard agonists (Raw-Blue™ line; [3]): do not respond

Compound: O.O=C[C@H](O)[C@@H](O)[C@H](O)[C@H](O)CO [LYCADEX®, dextrose monohydrate]
Raw cell response induced by matrix (Raw-Blue™ line; nonfiltered sample, 3.2% (w/v)): trigger an inflammatory response
HEK-TLR2 cell response induced by matrix (hTLR2 receptor; nonfiltered sample, 3.2% (w/v), monohydrate): do not trigger responses; also recorded: only barely or not at all active
HEK-TLR4 cell response induced by matrix (hTLR4 receptor; nonfiltered sample, 3.2% (w/v)): do not trigger a significant response
Assessment of inflammatory activity by sample [1]: low-strength inflammatory activity

Compound: formyl-Met-Leu-Phe tripeptide [f-MLP]
Induction of a cytokine response per se [2]: incapable of inducing a cytokine response per se
